Several values for one entry are separate records, joined by “and”; a condition that tells them apart may be missing. Equal entries are not always repeated. Inconclusive results and toxic doses are left out. The calls were made as follows: active = survival T/C of 150% or more; inactive = T/C below 125% in these data. Peptide text beside a SMILES is read from it.
System: P388 leukemia ip, CD2F1 mice, survival T/C
Experiment: NCI In Vivo Anticancer Drug Screen. Data for tumor model P388 Leukemia (intraperitoneal) in CD2F1 (CDF1) mice
Conditions: endpoint: median survival time, higher = longer survival
Summary of the method: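 Mice carrying the transplanted tumor received test compound or vehicle. Survival was recorded in each group, and the value is the treated-group measurement divided by that of the vehicle-treated control group.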

[1] = dose: 60.0 mg/kg/injection, schedule: Q01DX005 (ip), vehicle: saline with Tween-80
[2] = dose: 120.0 mg/kg/injection, schedule: Q01DX005 (ip), vehicle: saline with Tween-80
[3] = dose: 240.0 mg/kg/injection, schedule: Q01DX005 (ip), vehicle: saline with Tween-80
[4] = dose: 25.0 mg/kg/injection, schedule: Q01DX005 (ip), vehicle: Klucel (hydroxypropylcellulose) (HPC)
[5] = dose: 50.0 mg/kg/injection, schedule: Q01DX005 (ip), vehicle: Klucel (hydroxypropylcellulose) (HPC)
[6] = dose: 100.0 mg/kg/injection, schedule: Q01DX005 (ip), vehicle: Klucel (hydroxypropylcellulose) (HPC)
[7] = dose: 200.0 mg/kg/injection, schedule: Q01DX005 (ip), vehicle: Klucel (hydroxypropylcellulose) (HPC)
[8] = dose: 50.0 mg/kg/injection, schedule: Q01DX009 (ip), vehicle: saline with Tween-80
[9] = dose: 50.0 mg/kg/injection, schedule: Q01DX005 (ip), vehicle: saline with Tween-80
[10] = dose: 100.0 mg/kg/injection, schedule: Q01DX005 (ip), vehicle: saline with Tween-80
[11] = dose: 60.0 mg/kg/injection, schedule: Q01DX005 (ip), vehicle: Klucel (hydroxypropylcellulose) (HPC)
[12] = dose: 120.0 mg/kg/injection, schedule: Q01DX005 (ip), vehicle: Klucel (hydroxypropylcellulose) (HPC)
[13] = dose: 100.0 mg/kg/injection, schedule: Q01DX009 (ip), vehicle: saline with Tween-80
[14] = dose: 200.0 mg/kg/injection, schedule: Q01DX009 (ip), vehicle: saline with Tween-80
[15] = dose: 100.0 mg/kg/injection, schedule: Q04DX003 (ip), vehicle: saline with Tween-80
[16] = dose: 200.0 mg/kg/injection, schedule: Q04DX003 (ip), vehicle: saline with Tween-80
[17] = dose: 400.0 mg/kg/injection, schedule: Q04DX003 (ip), vehicle: saline with Tween-80
[18] = dose: 50.0 mg/kg/injection, schedule: Q01DX009 (ip), vehicle: saline
[19] = dose: 100.0 mg/kg/injection, schedule: Q01DX009 (ip), vehicle: saline
[20] = dose: 200.0 mg/kg/injection, schedule: Q01DX009 (ip), vehicle: saline

Measured: T/C

O=Cc1ccccc1
inactive: dose: 12.5 mg/kg/injection, schedule: Q01DX009 (ip), vehicle: Klucel (hydroxypropylcellulose) (HPC) 98 % of control | dose: 25.0 mg/kg/injection, schedule: Q01DX009 (ip), vehicle: Klucel (hydroxypropylcellulose) (HPC) 99 % of control and 100 % of control and 115 % of control | dose: 50.0 mg/kg/injection, schedule: Q01DX009 (ip), vehicle: Klucel (hydroxypropylcellulose) (HPC) 100 % of control and 103 % of control and 107 % of control | dose: 100.0 mg/kg/injection, schedule: Q01DX009 (ip), vehicle: Klucel (hydroxypropylcellulose) (HPC) 100 % of control and 97 % of control and 98 % of control | dose: 200.0 mg/kg/injection, schedule: Q01DX009 (ip), vehicle: Klucel (hydroxypropylcellulose) (HPC) 100 % of control and 109 % of control and 95 % of control | dose: 0.25 % in 0.5 ml injection vol, schedule: Q01DX009 (ip), vehicle: water 99 % of control | dose: 400.0 mg/kg/injection, schedule: Q01DX009 (ip), vehicle: Klucel (hydroxypropylcellulose) (HPC) 93 % of control and 98 % of control | dose: 0.5 % in 0.5 ml injection vol, schedule: Q01DX009 (ip), vehicle: water 100 % of control | dose: 1.0 % in 0.5 ml injection vol, schedule: Q01DX009 (ip), vehicle: water 100 % of control

Cc1ccc(Oc2ccc(C(=O)C(CN(C)C)CN(C)C)cc2)cc1
inactive: dose: 1.88 mg/kg/injection, schedule: Q01DX005 (ip), vehicle: saline 107 % of control | dose: 3.75 mg/kg/injection, schedule: Q01DX005 (ip), vehicle: saline 110 % of control | dose: 7.5 mg/kg/injection, schedule: Q01DX005 (ip), vehicle: saline 112 % of control and 121 % of control

Cc1ccc(S(=O)(=O)CC(=O)CC(=O)C(=O)Nc2cc(C)ccc2C)cc1
inactive: [1] 105 % of control | [2] 108 % of control | [3] 106 % of control

CN(C)c1ncnc2c1ncn2CCn1cnc2c(N(C)C)ncnc21
inactive: dose: 12.5 mg/kg/injection, schedule: Q01DX005 (ip), vehicle: Klucel (hydroxypropylcellulose) (HPC) 97 % of control | [4] 100 % of control | [5] 100 % of control and 90 % of control | [6] 90 % of control

COc1ccc(/C=C2\CCn3c2nc2ccccc2c3=O)cc1
inactive: dose: 89.75 mg/kg/injection, schedule: Q04DX002 (ip), vehicle: Klucel (hydroxypropylcellulose) (HPC) 103 % of control | dose: 179.5 mg/kg/injection, schedule: Q04DX002 (ip), vehicle: Klucel (hydroxypropylcellulose) (HPC) 102 % of control | dose: 359.0 mg/kg/injection, schedule: Q04DX002 (ip), vehicle: Klucel (hydroxypropylcellulose) (HPC) 102 % of control

CCOC(=O)c1ccccc1N1C(=O)c2ccccc2NP1(=O)Oc1ccccc1 (centres undefined)
inactive: [4] 106 % of control | [5] 103 % of control | [6] 106 % of control | [7] 98 % of control

N#Cc1ncc(C[P+](c2ccccc2)(c2ccccc2)c2ccccc2)nc1N
inactive: dose: 12.5 mg/kg/injection, schedule: Q01DX009 (ip), vehicle: saline with Tween-80 91 % of control | dose: 25.0 mg/kg/injection, schedule: Q01DX009 (ip), vehicle: saline with Tween-80 94 % of control | [8] 95 % of control

NCCn1[nH]c(=O)c2cnccc2c1=O
inactive: [1] 95 % of control | [2] 100 % of control | [3] 95 % of control

CCN1CCC(Nc2ccnc3cc(Cl)ccc23)CC1
inactive: [5] 99 % of control | [9] 104 % of control | [6] 94 % of control | [10] 110 % of control

CCN(CC)c1cc(=O)n2ccccc2n1
inactive: [11] 96 % of control | [12] 100 % of control | dose: 240.0 mg/kg/injection, schedule: Q01DX005 (ip), vehicle: Klucel (hydroxypropylcellulose) (HPC) 103 % of control

N#C/C(=N\NC(=O)c1ccccc1)c1ccccc1
inactive: dose: 12.5 mg/kg/injection, schedule: Q01DX005 (ip), vehicle: saline with Tween-80 100 % of control | dose: 25.0 mg/kg/injection, schedule: Q01DX005 (ip), vehicle: saline with Tween-80 95 % of control | [9] 103 % of control and 95 % of control

COC(=O)CN1C(=O)c2cccc3cc([N+](=O)[O-])cc(c23)C1=O
inactive: [1] 100 % of control | [2] 98 % of control | [3] 90 % of control

CC/C(=N/NS(=O)(=O)c1ccc(C)cc1)C(=O)O
inactive: [4] 90 % of control | [5] 92 % of control | [6] 92 % of control | [7] 91 % of control | dose: 400.0 mg/kg/injection, schedule: Q01DX005 (ip), vehicle: Klucel (hydroxypropylcellulose) (HPC) 88 % of control

Nc1ccc(-c2ccc(N)cc2)cc1
inactive: [13] 90 % of control | [14] 100 % of control | dose: 400.0 mg/kg/injection, schedule: Q01DX009 (ip), vehicle: saline with Tween-80 95 % of control

Cc1ccccc1NC(=O)Nc1ccc(N(CCCl)CCCl)cc1
inactive: dose: 50.0 mg/kg/injection, schedule: Q01DX001 (ip), vehicle: Klucel (hydroxypropylcellulose) (HPC) 92 % of control | dose: 100.0 mg/kg/injection, schedule: Q01DX001 (ip), vehicle: Klucel (hydroxypropylcellulose) (HPC) 109 % of control | dose: 200.0 mg/kg/injection, schedule: Q01DX001 (ip), vehicle: Klucel (hydroxypropylcellulose) (HPC) 120 % of control

Cc1c(C2=C(Br)C(=O)N(C)C2=O)c(=O)n(C)c(=O)n1C
inactive: [11] 111 % of control | [12] 118 % of control

O=[N+]([O-])c1cnn(Cn2cc([N+](=O)[O-])cn2)c1
inactive: [15] 109 % of control | [16] 116 % of control | [17] 120 % of control

C=CCOc1cc2c(cc1C/C=C/c1ccccc1)OCO2
inactive: [9] 102 % of control | [10] 103 % of control | dose: 200.0 mg/kg/injection, schedule: Q01DX005 (ip), vehicle: saline with Tween-80 109 % of control

Cc1cc(=O)n(-c2cccc3ccccc23)c(C)c1C(=O)O
inactive: [9] 102 % of control | [10] 94 % of control

c1cnc2nc3c4ccccc4c4ccccc4c3nc2c1
inactive: [8] 104 % of control and 94 % of control | [13] 104 % of control and 122 % of control and 93 % of control | [14] 101 % of control and 110 % of control and 86 % of control

O=C1NC(CO)C(=O)NC1CO (centres undefined)
inactive: dose: 12.5 mg/kg/injection, schedule: Q01DX009 (ip), vehicle: distilled water + Tween-80 90 % of control | dose: 25.0 mg/kg/injection, schedule: Q01DX009 (ip), vehicle: distilled water + Tween-80 92 % of control | dose: 50.0 mg/kg/injection, schedule: Q01DX009 (ip), vehicle: distilled water + Tween-80 90 % of control | [18] 98 % of control | dose: 50.0 mg/kg/injection, schedule: Q04DX003 (ip), vehicle: saline with Tween-80 100 % of control | dose: 100.0 mg/kg/injection, schedule: Q01DX009 (ip), vehicle: distilled water + Tween-80 93 % of control | [19] 95 % of control | [15] 100 % of control | dose: 200.0 mg/kg/injection, schedule: Q01DX009 (ip), vehicle: distilled water + Tween-80 90 % of control | [20] 98 % of control | [16] 99 % of control | dose: 400.0 mg/kg/injection, schedule: Q01DX009 (ip), vehicle: distilled water + Tween-80 90 % of control | dose: 400.0 mg/kg/injection, schedule: Q01DX009 (ip), vehicle: saline 104 % of control | [17] 99 % of control

O=C(O)CCCCCCCCCCNC(=O)Nc1cccc(C(F)(F)F)c1
inactive: dose: 25.0 mg/kg/injection, schedule: Q01DX009 (ip), vehicle: saline 88 % of control | [18] 98 % of control | [19] 104 % of control | [20] 111 % of control

O=C(/C=C/c1ccc(O)cc1)NCCc1c[nH]c2ccc(O)cc12
inactive: dose: 25.0 mg/kg/injection, schedule: Q01DX005 (ip), vehicle: Klucel + Tween-80 106 % of control | dose: 50.0 mg/kg/injection, schedule: Q01DX005 (ip), vehicle: Klucel + Tween-80 97 % of control | dose: 100.0 mg/kg/injection, schedule: Q01DX005 (ip), vehicle: Klucel + Tween-80 92 % of control | dose: 200.0 mg/kg/injection, schedule: Q01DX005 (ip), vehicle: Klucel + Tween-80 95 % of control

COC(=O)C(CCCN=C(N)N)NC(=O)C(N)CCCCN (stereo not drawn) (H-Lys-Arg-OMe; configuration not given here)
inactive: [1] 100 % of control | [2] 100 % of control | [3] 100 % of control

Reference: PubChem BioAssay AID330 (DTP/NCI, 2004)
